Measurements as given in patent publication US20210308196A1, “COMPOSITIONS AND METHODS TO PROMOTE HOST DEFENSE AND STIMULATE, EXPAND, AND/OR RESET T CELL REPERTOIRES” (EVOLVE BIOSYSTEMS, INC., priority 2018, published 2021).

Tests used:
[1] = tested on: human colonic mucin glycans; test: Fecal glycome and colonic mucin-derived O-glycans (nano-HPLC-Chip-TOF MS); assay type: in vivo
From the text: A library of known mucin-specific O-glycans was compiled and used to query untargeted mass spectra of fecal samples.
Analysis of spectra obtained with nano-high performance liquid chromatography-chip/time-of flight mass spectrometry (nano-HPLC-Chip-TOF MS). […] Briefly, the HPLC system used was an Agilent 1200 series unit with a microfluidic chip, which was coupled to an Agilent 6220 series TOF mass spectrometer via chip cube interface. The capillary pump on the chromatography unit loaded the sample onto the 40-nL enrichment column at a flow rate of 4.0 μL/min with a 1-μL injection volume. A nano pump was used for analyte separation on the analytical column, which was […] and packed with porous graphitized carbon. Separation was accomplished using a binary gradient of aqueous solvent A (3% acetonitrile (ACN)/water (v/v) in 0.1% formic acid (FA)) and organic solvent B (90% ACN/water (v/v) in 0.1% FA) using a method developed for HMO separation. The sample was introduced into the TOF mass spectrometer via electrospray ionization, which was tuned and calibrated using a dual nebulizer electrospray source with calibrant ions ranging from m/z 118.086 to 2721.895, and data were collected in the positive mode. These untargeted spectra were reanalyzed in the present study.
Glycan data analysis. The untargeted mass spectra were collected (as above) and analyzed using Agilent MassHunter Work station Data Acquisition version B.02.01 on the nanoHPLC-chip/TOF (Frese et al 2017). The “Find Compounds by Molecular Feature” function of the software was used to identify mucin glycan species within 20 ppm of theoretical masses. Compound abundances were expressed as volume in ion counts that corresponded to absolute abundances of the compounds in each sample. 1HexNAc-1NeuAc, 1HexNAc-1Hex-NeuAc, 2HexNAc-1NeuAc, 2HexNAc-1Hex-1Fuc, 2HexNAc-1Hex-1NeuAc, 2HexNAc-1Hex-2Fuc, 3HexNAc-1Hex-1Fuc, 2HexNAc-1Hex-1Fuc-1NeuAc, 2HexNAc-1Hex-1Fuc-2NeuAc, 3HexNAc-1Hex-2NeuAc and 3HexNAc-1Hex-2Fuc-1NeuAc were monitored as they are discriminitively human colonic glycans. Robbe et al. (2004) Rapid Communications in Mass Spectrometry 18(4): 412-420.
Statistical analysis. Multiple t-tests were carried out with the Holm-Sidak correction in Graph Pad Prism 7 (GraphPad Software, La Jolla, Calif. USA). Pearson and Spearman correlational tests and principle component analyses were performed in R (v 3.4.2). Adonis test was carried out using a weighted UNIFRAC distance matrix (Lozupone et al 2011) in QIIME 1.9.1 (Caporaso et al 2010). […] The total oligosaccharide (OS) compositions of the samples were determined by the untargeted approach of nano-HPLC-Chip-TOF. The compounds were characterized using previously published libraries. Thomsson et al. (2002) Glycobiology 12(1): 1-14; Robbe et al. (2004) Rapid Communications in Mass Spectrometry 18(4): 412-420; Matamoros et al. (2013) Trends in Microbiology 21(4): 167-173; Karav et al. (2016) Applied and Environ. Micro. 82(12): 3622-3630. Among these compositions, free HMO (Frese et al. (2017) mSphere 2(6): e00501-e00517) and mucin OS were found in the infant fecal glycome. The degradation of human colonic mucin glycans by different gut microbiome profiles was determined as the difference between a B. infantis-dominated microbiome and microbiomes with more abundant mucolytic taxa, such as Bacteroidaceae. As target molecules, 1HexNAc-1NeuAc, 1HexNAc-1Hex-NeuAc, 2HexNAc-1NeuAc, 2HexNAc-1Hex-1Fuc, 2HexNAc-1Hex-1NeuAc, 2HexNAc-1 Hex-2Fuc, 3HexNAc-1Hex-1Fuc, 2HexNAc-1Hex-1Fuc-1NeuAc, 2HexNAc-1Hex-1Fuc-2NeuAc, 3HexNAc-1Hex-2NeuAc and 3HexNAc-1Hex-2Fuc-1NeuAc, were selected as typical human colonic mucin glycans, as shown by Robbe et al. (2004) Rapid Communications in Mass Spectrometry 18(4): 412-420.

fecal bacteria = test: Fecal microscopy (Gram-stained light microscopy, SEM); assay type: in vivo, human
Experimental: Fecal Microscopy. All samples were fixed by adding equal amount of 5% glutaraldehyde in 0.2 M cacodylate buffer (final concentration 2.5% glutaraldehyde in 0.1 M cacodylate buffer) for 1-2 h before being processed for Gram-stained light microscopy and scanning electron microscopy (SEM). For light microscopy, conventional Gram-stained samples on slides were imaged under an EVOS Auto-FL system using a 60× lens and 2.7× optical zoom, under the same setting of the color camera. Five random fields of images were collected from each sample slide. For SEM, since the samples were previously frozen before fixation, the osmium post-fixation, and critical-point dry procedures were not performed. The fixed samples were dehydrated through an ethanol series and placed on membrane filters. The samples were mounted onto the SEM stubs, aired overnight, and then vacuum-oven dried at 50° C. for >2 h before sputter-coating with a thin layer of chromium using Denton Desk V sputter. Images were collected under various magnifications to capture bacterial morphology using a Hitachi […] field-emission SEM. Microscopy confirmed the high levels of Bifidobacterium in samples from the treatment group.

[2] = Bacterial growth and oligosaccharide use in HMO, LNnT or FOS media (growth curves, HPLC); conditions: compared to other Bifidobacterium and Lactobacillus strains
Experimental: Little is known about the anti-inflammatory effects B. infantis-derived metabolites have on intestinal epithelial cells and how they might protect and maintain mucosal integrity in the infant gut. To investigate whether metabolites from B. infantis grown on HMO and synthetic HMOs can provide protective effects against pathogen-induced inflammation and maintain mucosal integrity compared to other commensal strains that have been previously characterized. B. infantis, B. breve, B. bifidum, and B. longum were grown in media containing pooled HMOs, synthetic Lacto-N-neotetraose (LNnT), or fructo-oligosaccharide (FOS, a readily available oligosaccharide commonly used in baby formulas). Four Lactobacillus plantarum strains were also grown in HMO, LNnT, and FOS media. Spent supernatant was collected and filtered after 48 hours of growth (when the bacteria reached the stationary phase) and evaluated for the remaining oligosaccharide concentration. […] After overnight incubation, cell supernatant was analyzed by ELISA for reductions in pro-inflammatory cytokines, including IL-8 and TNF-alpha. […]

Bifidobacterium longum subsp. infantis EVC001 [B. infantis EVC001]
Number of total OS structures (including isomers and anomers) ([1]; infant feces, FIG. 2A): 360.44±102.52
Number of colonic mucin-derived O-glycan structures ([1]; infant feces, FIG. 2B): 6.33 (±2.24)
Relative abundance of colonic mucin-derived O-glycans, number of structures ([1]; infant feces, FIG. 2C): 1.78%±0.385
Colonic mucin-derived O-glycans, proportion of the total OS profile ([1]; infant feces, FIG. 2D): 1.68±1.12%
Glycan 1_0_0_1 (1HexNAc-1NeuAc) Log10 Volume EVC001-fed [Mean (+/− SD)] ([1]; infant feces, neutral mass 512): 5.39
Glycan 1_1_0_1 (1HexNAc-1Hex-1NeuAc) Log10 Volume EVC001-fed [Mean (+/− SD)] ([1]; infant feces, neutral mass 675): 4.01
Glycan 2_0_0_1 (2HexNAc-1NeuAc) Log10 Volume EVC001-fed [Mean (+/− SD)] ([1]; infant feces, neutral mass 716): 0
Glycan 2_1_1_0 (2HexNAc-1Hex-1Fuc) Log10 Volume EVC001-fed [Mean (+/− SD)] ([1]; infant feces, neutral mass 735): 0
Glycan 2_1_0_1 (2HexNAc-1Hex-1NeuAc) Log10 Volume EVC001-fed [Mean (+/− SD)] ([1]; infant feces, neutral mass 878): 5.56
Glycan 2_1_2_0 (2HexNAc-1Hex-2Fuc) Log10 Volume EVC001-fed [Mean (+/− SD)] ([1]; infant feces, neutral mass 879): 5.48
Glycan 3_1_1_0 (3HexNAc-1Hex-1Fuc) Log10 Volume EVC001-fed [Mean (+/− SD)] ([1]; infant feces, neutral mass 936): 5.43
Glycan 2_1_1_1 (2HexNAc-1Hex-1Fuc-1NeuAc) Log10 Volume EVC001-fed [Mean (+/− SD)] ([1]; infant feces, neutral mass 1024): 5.38
Glycan 2_1_1_2 (2HexNAc-1Hex-1Fuc-2NeuAc) Log10 Volume EVC001-fed [Mean (+/− SD)] ([1]; infant feces, neutral mass 1315): 6.68
Glycan 3_1_0_2 (3HexNAc-1Hex-2NeuAc) Log10 Volume EVC001-fed [Mean (+/− SD)] ([1]; infant feces, neutral mass 1372): 5.47
Glycan 3_1_2_1 (3HexNAc-1Hex-2Fuc-1NeuAc) Log10 Volume EVC001-fed [Mean (+/− SD)] ([1]; infant feces, neutral mass 1373): 6.12
Mucin degradation ([1]; supplemented infants compared to the control group): significantly less
Bifidobacterium in fecal samples by microscopy (fecal bacteria; samples from the treatment group): high levels
Gram staining of fecal smears (fecal bacteria; three fecal samples, Day 40): overwhelmingly contained Gram-positive bacteria
Bacterial morphology in fecal samples (fecal bacteria; three fecal samples, Day 40, multiple fields of view): uniform morphology of rod-shaped bacteria
Growth in HMOs (growth curves) [2]: selective growth advantage
